From patent US6936607B2, “2,4,6-Triaminopyrimidines for the treatment of depression and/or anxiety” (H. Lunobeck A/S, priority 2002, dated 2005)

biological target: T1, human GalR3 receptor (Homo sapiens, UniProt O60755); test: Radioligand binding assay at cloned human GalR3 receptor; conditions: Binding Data; membranes from LM(tk-) cells stably transfected with the human GalR3 receptor
T1 construct: expressed in transfected cells; host or cells: mouse fibroblast LM(tk-) cells, stably transfected; membranes
T1 sequence (O60755 1-368): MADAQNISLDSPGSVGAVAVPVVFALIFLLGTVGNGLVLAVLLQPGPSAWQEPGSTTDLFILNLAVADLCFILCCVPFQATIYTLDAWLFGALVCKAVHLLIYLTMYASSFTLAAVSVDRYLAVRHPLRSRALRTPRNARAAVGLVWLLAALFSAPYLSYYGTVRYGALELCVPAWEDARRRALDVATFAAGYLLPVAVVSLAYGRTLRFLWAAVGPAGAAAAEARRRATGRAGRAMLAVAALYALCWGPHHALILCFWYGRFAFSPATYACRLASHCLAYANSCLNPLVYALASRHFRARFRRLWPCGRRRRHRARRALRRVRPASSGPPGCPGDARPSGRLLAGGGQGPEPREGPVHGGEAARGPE
Experimental: LM(tk-) cells were stably transfected with the human GalR3 receptor. cDNAs for the human and rat GalR3 receptors were transfected with a G-418 resistant gene into the mouse fibroblast LM(tk-) cell line by a calcium phosphate transfection method (Cullen, 1987). Membranes were harvested from stably transfected LM(tk-) cells. Adherent cells were washed twice in ice-cold phosphate buffered saline (138 mM NaCl, 8.1 mM Na2HPO4, 2.5 mM KCl, 1.2 mM KH2PO4, 0.9 mM CaCl2, 0.5 mM MgCl2, pH 7.4) and lysed by sonication in ice-cold sonication buffer (20 mM Tris-HCl, 5 mM EDTA, pH 7.7). Large particles and debris were cleared by low speed centrifugation (200×g, 5 min, 4° C.). Membranes were collected from the supernatant fraction by centrifugation (32,000×g, 18 min, 4° C.), washed with ice-cold hypotonic buffer, and collected again by centrifugation (32,000×g, 18 min, 4° C.). The final membrane pellet was resuspended by sonication into a small volume of ice-cold binding buffer (˜1 ml for every 5 plates: 10 mM NaCl, 20 mM HEPES, 0.22 mM KH2PO4, 1.26 mM CaCl2, 0.81 mM MgSO4, pH 7.4). Protein concentration was measured by the Bradford method (Bradford, 1976) using Bio-Rad Reagent, with bovine serum albumin as a standard. Membranes were held on ice for up to one hour and used fresh, or flash frozen and stored in liquid nitrogen. Membranes were prepared similarly from CHO cells. The methods to obtain the cDNA of the receptors, express said receptors in heterologous systems, and carry out assays to determine binding affinity are described as follows. Binding assays were performed according to the following published method: human GALR3 (PCT International Publication No. WO 02/060392).

Row | SMILES | Ki [µM]
1 | CC1CC(C)CN(c2nc(Nc3cccc(OCc4ccccc4)c3)cc(N(C)C)n2)C1 (centres unmarked) [Example 38, N^4-[3-(BENZYLOXY)PHENYL]-2-(3,5-DIMETHYL-1-PIPERIDINYL)-N^6,N^6-DIMETHYL-4,6-PYRIMIDINEDIAMINE] | 0.015
2 | CN(C)c1cc(Nc2cccc(OCc3ccccc3)c2)nc(N2CCN(c3ccc(Cl)cc3)CC2)n1 [Example 31, N^4-[3-(BENZYLOXY)PHENYL]-2-[4-(4-CHLOROPHENYL)-1-PIPERAZINYL]-N^6,N^6-DIMETHYL-4,6-PYRIMIDINEDIAMINE] | 0.026
3 | CN(C)c1cc(Nc2cccc(OCc3ccccc3)c2)nc(N2CCN(c3ccccc3Cl)CC2)n1 [Example 25, N^4-[3-(BENZYLOXY)PHENYL]-2-[4-(2-CHLOROPHENYL)-1-PIPERAZINYL]-N^6,N^6-DIMETHYL-4,6-PYRIMIDINEDIAMINE] | 0.016
4 | CCC(C)Nc1cc(Nc2cc(N(C)C)nc(N3C[C@@H](C)O[C@@H](C)C3)n2)ccc1C (stereo partly drawn) [Example 50, N^4-[3-(SEC-BUTYLAMINO)-4-METHYLPHENYL]-2-[CIS-2,6-DIMETHYL MORPHOLINYL]-N^6,N^6-DIMETHYL-4,6-PYRIMIDINEDIAMINE] | 0.312
5 | CN(C)c1cc(Nc2ccc(C3CCCCC3)cc2)nc(N2CCN(c3cccc(Cl)c3)CC2)n1 [Example 9, 2-[4-(3-CHLOROPHENYL)-1-PIPERAZINYL]-N^4-(4-CYCLOHEXYLPHENYL)-N^6,N^6-DIMETHYL-4,6-PYRIMIDINEDIAMINE] | 0.241
6 | C[C@@H]1CN(c2nc(Nc3cccc(OCc4ccccc4)c3)cc(N(C)C)n2)C[C@H](C)O1 [Example 34, N^4-[3-(BENZYLOXY)PHENYL]-2-[CIS-2,6-DIMETHYLMORPHOLINYL]-N^6,N^6-DIMETHYL-4,6-PYRIMIDINEDIAMINE] | 0.032
7 | CCN(CC)c1cc(C)ccc1Nc1cc(N(C)C)nc(N2CCN(c3ccccn3)CC2)n1 [Example 44, N^4-[2-(DIETHYLAMINO)-4-METHYLPHENYL]-N^6,N^6-DIMETHYL-2-[4-(2-PYRIDINYL)-1-PIPERAZINYL]-4,6-PYRIMIDINEDIAMINE] | 0.314
8 | CN(C)c1cc(Nc2ccc(Cl)c(Cl)c2)nc(N2CCN(c3ccccc3F)CC2)n1 [Example 29, N^4-(3,4-DICHLOROPHENYL)-2-[4-(2-FLUOROPHENYL)-1-PIPERAZINYL]-N^6,N^6-DIMETHYL-4,6-PYRIMIDINEDIAMINE] | 0.027
9 | CN(C)c1cc(Nc2cccc(OCc3ccccc3)c2)nc(N2CCN(c3cccc(Cl)c3)CC2)n1 [Example 27, N^4-[3-(BENZYLOXY)PHENYL]-2-[4-(3-CHLOROPHENYL)-1-PIPERAZINYL]-N^6,N^6-DIMETHYL-4,6-PYRIMIDINEDIAMINE] | 0.028
10 | Cc1ccc(Nc2cc(N(C)C)nc(N3CCN(c4ccc(Cl)cc4)CC3)n2)cc1C [Example 23, 2-[4-(4-CHLOROPHENYL)-1-PIPERAZINYL]-N^4-(3,4-DIMETHYLPHENYL)-N^6,N^6-DIMETHYL-4,6-PYRIMIDINEDIAMINE] | 0.129
11 | CN(C)c1cc(Nc2ccc3c(c2)CCC3)nc(N2CCN(c3cccc(Cl)c3)CC2)n1 [Example 2, 2-[4-(3-CHLOROPHENYL)-1-PIPERAZINYL]-N^4-(2,3-DIHYDRO-1H-INDEN-5-YL)-N^6,N^6-DIMETHYL-4,6-PYRIMIDINEDIAMINE] | 0.034
12 | Cc1ccc(Nc2cc(N(C)C)nc(N3CCN(c4ccccc4F)CC3)n2)cc1 [Example 5, 2-[4-(2-FLUOROPHENYL)-1-PIPERAZINYL]-N^4,N^4-DIMETHYL-N^6-(4-METHYLPHENYL)-4,6-PYRIMIDINEDIAMINE] | 0.117
13 | Cc1ccc(Nc2cc(N(C)C)nc(N3CCN(c4ccc(Cl)cc4)CC3)n2)cc1 [Example 7, 2-[4-(4-CHLOROPHENYL)-1-PIPERAZINYL]-N^4,N^4-DIMETHYL-N^6-(4-METHYLPHENYL)-4,6-PYRIMIDINEDIAMINE] | 0.352
14 | CN(C)c1cc(Nc2ccc3c(c2)CCC3)nc(N2CCN(c3ccccc3F)CC2)n1 [Example 12, N^4-(2,3-DIHYDRO-1H-INDEN-5-YL)-2-[4-(2-FLUOROPHENYL)-1-PIPERAZINYL]-N^6,N^6-DIMETHYL-4,6-PYRIMIDINEDIAMINE] | 0.075
